Experiments:
[1] = tested on: GABAAR in cerebellar astrocytes (UT co-expressed); test: Whole-cell patch-clamp of isoguvacine (Iso)-evoked depolarization/chloride current in cerebellar astrocytes co-cultured with granule neurons; type: cell-based, rat; conditions: Iso 10^−4 M; n = 78
Procedure: (§1) Primary Cell Culture of astrocytes and astrocyte-neurone co-culture
(§2) Primary cultures of astrocytes were prepared as previously described. Briefly, cerebellum from 7-day-old (P7) Wistar rats were collected in DMEM/Ham-F12 (2∶1, v/v) culture medium supplemented with 2 mM glutamine, 1% insulin, 5 mM HEPES, 0.4% D(+)-glucose and 1% of the antibiotic-antimycotic solution. The tissues were disaggregated mechanically with a syringue equipped with a 1-mm gauge needle, and filtered through a 100-µm pore size mesh filter (Falcon, Becton Dickinson, Grenoble, France). Dissociated cells were resuspended in culture medium supplemented with 10% heat-inactivated FBS and seeded in 150-cm^2 culture flasks (Falcon) at a density of 20×10^6 cells/flask. Cells were incubated at 37°C in a humidified atmosphere (5% CO2) and the medium was changed twice a week. When cultures were confluent, the flasks were gently shaken on an orbital shaker at […] for 2 h. Dislodged cells were discarded and a second step of purification was performed at […] for 14–16 h. Remaining adhesive cells were collected by trypsination, centrifuged (800 g, 10 min) and plated in 150-cm^2 flasks. Suspended astrocytes were harvested and seeded in 24-well poly-L-lysine-coated plates. The purity of the cultures was previously assessed by counting the percentage of astrocytes immunostained with GFAP antibodies. The enriched cultures contained >99% astrocytes.
(§3) For astrocyte-neuron co-culture, granule cell cultures were prepared from cerebella of P7 Wistar rats as described previously. Isolated cells were plated on 14-mm culture dishes coated with poly-L-lysine (5 mM) at a density of 1.5×10^6 cells/dish and incubated at 37°C in a humidified atmosphere (5% CO2) for 1 to 10 days before use. Culture medium consisted of DMEM/Ham's F12 (75%/25%) supplemented with 10% FBS, 2 mM glutamine, 5 µg/ml insulin, 25 mM KCl and 1% of antibiotic-antimycotic solution. Co-cultures are obtained by seeding granule cells (1.5×10^6 cells/ml) on cerebellar astrocytes plated in 24-well plates after 12 hours. Co-cultures are maintained in the specific medium for neuron and incubated at 37°C in an humidified atmosphere (5% CO2) for several days.
(§4) The conventional whole-cell configuration of the patch-clamp technique was used to study the GABA-gated currents in astrocytes and granule neurons, UT stably transfected CHO, CHO-UT, and CHO transiently transfected with diverse variants of UT and GABAAR subunits. After 24-h transfection, cell culture coverslips were placed in a small chamber (1.5 ml) on a stage of a right microscope DMLFSA (Leica, Heidelberg, Germany) and superfused continuously with the following bath solution containing (in mM): NaCl, 150; KCl, 2.5; HEPES, 5; CaCl2, 2; MgCl2, 1; glucose, 10 (pH 7.4 adjusted with NaOH). The patch pipettes were fabricated from 1.5 mm (outer diameter) soft glass tubes on a two-step vertical pipette puller (List-Medical, L/M-3P-A, Darmstadt, Germany). […] ATP and GTP were added to the internal solution used to fill electrode just before recording. All recordings were obtained at RT with cells voltage-clamped at −70 mV. The GABAA receptor agonist isoguvacine was prepared in the extracellular solution and was applied to cells by pneumatic pressure ejection. To prevent desenzitization, isoguvacine was more often ejected during 5 s at 2-min intervals. ATP, GTP, or guanosine 5′-O-(2-thiodiphosphate) (GDPβS) were administered through the patch pipette solution. We investigated the effect of competitive inhibition of GDP-GTP exchange by including GDPβS in the pipette solution (in addition to the normal amount of GTP). For GDPβS and the KIC, immediately following patch rupture, GABA current recordings were performed and the experiment was commenced after an equilibration period of 15 min. […]

[2] = tested on: GABAAR in astrocytes (mono-culture); test: Patch-clamp responsiveness of astrocytes in mono-culture to isoguvacine; type: cell-based, rat; conditions: Iso 10^−4 M; n = 31
Procedure: as §2, with “astrocytes. […]” for “astrocytes.”

[3] = molecular target: T1, GABAAR in cerebellar astrocytes (UT co-expressed) (Rattus norvegicus, UniProt P49684); test: Whole-cell patch-clamp of isoguvacine (Iso)-evoked depolarization/chloride current in cerebellar astrocytes co-cultured with granule neurons; type: cell-based
T1 construct: Astrocytes, recognized by strong GFAP staining show UT immunoreactivity; endogenous in cells; host or cells: primary rat (P7 Wistar) cerebellar astrocytes co-cultured with cerebellar granule neurons
T1 sequence (P49684 1-386): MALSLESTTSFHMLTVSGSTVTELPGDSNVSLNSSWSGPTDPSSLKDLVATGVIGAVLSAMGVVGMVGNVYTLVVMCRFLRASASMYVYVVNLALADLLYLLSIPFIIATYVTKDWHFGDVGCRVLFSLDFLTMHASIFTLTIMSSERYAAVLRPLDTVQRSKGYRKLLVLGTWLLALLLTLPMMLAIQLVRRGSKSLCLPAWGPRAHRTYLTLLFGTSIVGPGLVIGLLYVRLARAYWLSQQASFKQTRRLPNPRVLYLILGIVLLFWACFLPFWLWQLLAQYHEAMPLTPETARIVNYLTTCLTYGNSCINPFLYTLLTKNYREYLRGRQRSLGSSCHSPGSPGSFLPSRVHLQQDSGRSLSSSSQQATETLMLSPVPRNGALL
Procedure: as §1, §2, §3, §4

O=C(O)C1=CCNCC1 [Iso, isoguvacine]
Cells responding to isoguvacine, astrocytes cultured with granule neurons [1]: 48%
Cells responding to isoguvacine, astrocytes in mono-culture [2]: 12%

UII: Urotensin II, species not stated at that place (rUII in astrocytes, hUII in CHO and human cells)
Direct current activated ([3]; UII 10^−8 M, in some cells): activated a small inward current
Recovery of the GABAAR current inhibition during washout ([3]; astrocytes): hardly recovered during washout

— PMC3341351, “Down-Regulation of GABAA Receptor via Promiscuity with the Vasoactive Peptide Urotensin II Receptor. Potential Involvement in Astrocyte Plasticity” (PLoS ONE, 2012)
